Where “and” joins values, the source holds several entries; their conditions need not be identical. Equal entries are not always repeated. Where two headings read alike, the source gives them in different places.
Experiments:
[1] = Example 19 crossover pharmacokinetics of four oral tablet formulations in fasted dogs; format: in vivo, beagle dogs; settings: Example 19, fasted dogs, 200 mg tablet PO; for concentration at 1 h: read-out: Plasma concentration of Compound I at 1 hour; for concentration at 24 h: read-out: Plasma concentration of Compound I at 24 hours
Protocol: (§1) Pharmacokinetics parameters of formulations of Compound I and its salts in dogs were determined by orally administering a test formulation tablet at 200 mg of active (Compound I or salt) per dog.
(§2) Blood samples were taken at various times after administration, plasma prepared, and submitted to analysis for parent drug using a qualified LC-MS-MS assay. Pharmacokinetics parameters derived from the plasma analytical data were determined using non-compartmental analysis.
Pharmacokinetics of Compound I was determined in pentagastrin-pretreated male beagle dogs following a single oral (PO) administration at 200 mg/tablet/dog in a 4-phase crossover study with a washout period of at least 7 days in between each phase. Five male non-naive purebred beagle dogs were used in each phase of study. All dogs were pretreated with pentagastrin (6 μg/kg intramuscular administrations) approximately 30 minutes before administration of test article.
Four tablet formulations of test article were assessed, each containing 200 mg test article (free base equivalent). Animals were fasted overnight prior to PO dosing through approximately 4 hours postdose. The tablet dose was administered orally, followed by approximately 10 mL of RO (reverse osmosis) water. Phase 1 animals were given tablets containing Compound I in nanosuspension formulation as described above, phase 2 animals were given tablets containing Compound I in jet-milled form as described above, and phase 4 animals received tablets containing Compound I mono-tosylate salt as described above. In phase 3, tablets including an amorphous solid dispersion as described above were crushed and suspended in water, then dosed to the animals. Each animal received one triturated tablet, which was administered orally by gavage as an aqueous suspension formulation. Blood samples were collected predose and at 0.25, 0.5 1, 2, 4, 8, 24, 36 and 48 hours after the oral dose. Plasma was harvested, and the concentration of Compound I in each sample was determined by a non-validated LC/MS/MS assay. The assay limit of quantitation was 1.02 to 5.1 ng/mL for Compound I.
Mean Compound I concentrations measured in plasma were used to construct semi-logarithmic plasma concentration-time curves (FIG. 13). Pharmacokinetic analysis was performed using a non-compartmental method.

[2] = Approximate solubility in MeOH/MTBE at room temperature; format: physicochemical; settings: organic solvent or mixture
Protocol: The approximate solubility of mono-tosylate Type A was measured in MeOH/MTBE at room temperature. […] To achieve appropriate volumetric efficiency and yield, the starting concentration in MeOH was 250 mg/mL and the final ratio of the anti-solvent crystallization process in MeOH/MTBE (v/v) was 1:3.

[3] = Example 20 crossover pharmacokinetics of two oral tablet formulations in dogs under fed conditions; format: in vivo, beagle dogs; design: Plasma concentration of Compound I at 24 hours / Plasma concentration of Compound I at 36 hours / Plasma concentration of Compound I at 0.5 hours / Plasma concentration of Compound I at 1 hour / Plasma concentration of Compound I at 2 hours: unit: ng/mL; settings: 200 mg tablet PO
Protocol: as §1, §2
Pharmacokinetics of Compound I were determined in pentagastrin-pretreated male beagle dogs following a single oral (PO) administration at 200 mg/tablet/dog in a 2-phase crossover study with a washout period of at least 7 days in between each phase. Six male, non-naive, purebred beagle dogs were used in each phase of the 2-phase crossover study. All dogs were pretreated with pentagastrin (6 μg/kg intramuscular administrations) approximately 30 minutes before test article administration.
Two tablet formulations (nanosuspension and mono-tosylate salt, as described above) of test article were assessed. Phase 1 animals were given tablets containing Compound I nanosuspension. Phase 2 animals were given tablets containing Compound I mono-tosylate salt. Animals in both phases were fasted overnight through approximately 4 hours postdose, and received a 100-mL volume of homogenized Food and Drug Administration (FDA) high fat diet by oral gavage at approximately 30 minutes prior to test article administration, followed by a 7 to 10-mL flush with water. Blood samples were collected pre-dose and at 0.25. 0.5, 1. 2. 4. 8, 24, 36, and 48 hours after the oral dose. Plasma was harvested, and the concentration of Compound I in each plasma sample was determined by an LC/MS/MS assay. The assay lower limit of quantitation was 20 ng/mL for Compound I.
Mean Compound I concentrations measured in plasma were used to construct semi-logarithmic plasma concentration-time curves (FIG. 14). Pharmacokinetic analysis was performed using non-compartmental methods.

[4] = Dissolution and precipitation in pH 6.5 phosphate buffer at 37° C. containing HPMC; format: physicochemical
Text: The inclusion of HPMC in the tablet of Example 16 was to maintain the supersaturation of Compound I API after its mono-tosylate salt dissolves. […]

[5] = individual subjects, LOQ 1.02 to 5.1 ng/mL, mono-tosylate salt
[6] = individual subjects, mono-tosylate salt
[7] = male, beagle, dog, plasma, po, 200 mg/tablet/dog, individual subjects, LOQ 1.02 to 5.1 ng/mL
[8] = male, beagle, dog, plasma, po, 200 mg/tablet/dog, mean, LOQ 1.02 to 5.1 ng/mL
[9] = Example 20, fed dogs (high fat diet), individual subjects, mono-tosylate salt
[10] = Example 20, fed dogs, individual subjects, LLOQ 20 ng/mL, mono-tosylate salt
[11] = male, beagle, dog, plasma, po, 200 mg, Example 20, fed dogs (high fat diet), mean

SMILES: Cc1ccc(S(=O)(=O)O)cc1.Cn1cc(-c2cn(-c3ccc(OC(F)(F)F)cc3)c(=O)c3ncn(C)c23)cn1 [mono-tosylate, 1-methyl-7-(1-methyl-1H-pyrazol-4-yl)-5-(4-(trifluoromethoxy)phenyl)-1,5-dihydro-4H-imidazo[4,5-c]pyridin-4-one, mono-tosylate salt]
- Plasma concentration of Compound I at 0.25 hours [1, 5]: 309 and 1500 and 2900 and 39.7 and 571
- Plasma concentration of Compound I at 0.5 hours [1, 5]: 3650 and 3910 and 5440 and 726 and 3520
- Plasma concentration of Compound I at 1 hour [1, 5]: 5470 and 7310 and 4880 and 5360
- Plasma concentration of Compound I at 2 hours [1, 5]: 9370 and 10200 and 5680 and 5450 and 4130
- Plasma concentration of Compound I at 4 hours [1, 5]: 8040 and 12900 and 4590 and 4840 and 3480
- Plasma concentration of Compound I at 8 hours [1, 5]: 3650 and 6910 and 2500 and 3060 and 1630
- Plasma concentration of Compound I at 24 hours [1, 5]: 597 and BLQ (3×)
- Plasma concentration of Compound I at 36 hours [1, 5]: 11.0 and 17.8 and BLQ (2×) and 842
- Plasma concentration of Compound I at 48 hours [1, 5]: BLQ (3×) and 200 and 10.1
- AUC0-last [1, 6]: 76500 ng·h/mL and 116000 ng·h/mL and 44300 ng·h/mL and 122000 ng·h/mL and 34200 ng·h/mL
- AUC0-rt [1, 6]: 76600 ng·h/mL and 116000 ng·h/mL and 44400 ng·h/mL and 123000 ng·h/mL and 34300 ng·h/mL
- Cmax [1, 6]: 9450 ng/mL and 12900 ng/mL and 7310 ng/mL and 5450 ng/mL and 5360 ng/mL
- tmax [1, 6]: 1.00 h
- AUC(0-t) ([1]; male, beagle, dog, plasma, po, 200 mg, mean): 78500 ng·h/mL
- AUC ([1]; male, beagle, dog, plasma, po, 200 mg, mean, read-out: AUC0-rt): 78900 ng·h/mL
- Cmax ([1]; male, beagle, dog, plasma, po, 200 mg, mean, read-out: Cmax): 8100 ng/mL
- tmax ([1]; male, beagle, dog, plasma, po, 200 mg, mean, read-out: tmax): 1.8 h
- concentration at 1 h [1, 7]: 9450 ng/mL
- concentration at 24 h [1, 7]: 352 ng/mL
- concentration at 0.25 h ([1]; male, beagle, dog, plasma, po, 200 mg/tablet/dog, mean, LOQ 1.02 to 5.1 ng/mL, read-out: Plasma concentration of Compound I at 0.25 hours): 1060 ng/mL
- concentration at 0.5 h ([1]; male, beagle, dog, plasma, po, 200 mg/tablet/dog, mean, LOQ 1.02 to 5.1 ng/mL, read-out: Plasma concentration of Compound I at 0.5 hours): 3450 ng/mL
- concentration at 1 h [1, 8]: 6490 ng/mL
- concentration at 2 h ([1]; male, beagle, dog, plasma, po, 200 mg/tablet/dog, mean, LOQ 1.02 to 5.1 ng/mL, read-out: Plasma concentration of Compound I at 2 hours): 6960 ng/mL
- concentration at 4 h ([1]; male, beagle, dog, plasma, po, 200 mg/tablet/dog, mean, LOQ 1.02 to 5.1 ng/mL, read-out: Plasma concentration of Compound I at 4 hours): 6780 ng/mL
- concentration at 8 h ([1]; male, beagle, dog, plasma, po, 200 mg/tablet/dog, mean, LOQ 1.02 to 5.1 ng/mL, read-out: Plasma concentration of Compound I at 8 hours): 3550 ng/mL
- concentration at 24 h [1, 8]: 1070 ng/mL
- concentration at 36 h ([1]; male, beagle, dog, plasma, po, 200 mg/tablet/dog, mean, LOQ 1.02 to 5.1 ng/mL, read-out: Plasma concentration of Compound I at 36 hours): 290 ng/mL
- concentration at 48 h ([1]; male, beagle, dog, plasma, po, 200 mg/tablet/dog, mean, LOQ 1.02 to 5.1 ng/mL, read-out: Plasma concentration of Compound I at 48 hours): 105 ng/mL
- solubility ([2]; MeOH/MTBE (v/v, 1:2), read-out: approximate solubility in MeOH/MTBE (v/v, 1:2)): 9.3 to 18.6 mg/mL
- solubility ([2]; MeOH/MTBE (v/v, 1:3), read-out: approximate solubility in MeOH/MTBE (v/v, 1:3)): < 5.4 mg/mL
- solubility ([2]; methanol, read-out: approximate solubility in MeOH): 264 to 348 mg/mL
- AUC0-last [3, 9]: 59000 ng·h/mL and 75300 ng·h/mL and 68500 ng·h/mL and 26200 ng·h/mL and 16000 ng·h/mL and 47500 ng·h/mL
- AUC0-rt [3, 9]: 59700 ng·h/mL and 70100 ng·h/mL and 26200 ng·h/mL and 47700 ng·h/mL
- Cmax [3, 9]: 5340 ng/mL and 8590 ng/mL and 5160 ng/mL and 4930 ng/mL and 3490 ng/mL and 5080 ng/mL
- Plasma concentration of Compound I at 48 hours ([3]; Example 20, fed dogs, individual subjects, LLOQ 20 ng/mL): BLQ
- Plasma concentration of Compound I at 0.25 hours [3, 10]: BLQ (4×) and 381 and 41.0
- Plasma concentration of Compound I at 1 hour [3, 10]: 107 and 6070 and 2340 and 3330 and 1200 and 97.9
- Plasma concentration of Compound I at 2 hours [3, 10]: 2010 and 8270 and 5160 and 4930 and 2020 and 5080
- Plasma concentration of Compound I at 4 hours [3, 10]: 5340 and 8590 and 4020 and 3770 and 3490 and 4530
- Plasma concentration of Compound I at 8 hours [3, 10]: 3240 and 4900 and 1480 and 1020 and 1200 and 2920
- Plasma concentration of Compound I at 48 hours ([3]; Example 20, fed dogs, mean, LLOQ 20 ng/mL): BLQ
- tmax ([3]; male, beagle, dog, plasma, po, 200 mg, Example 20, fed dogs (high fat diet), individual subjects): 4 h
- AUC(0-t) [3, 11]: 48800 ng·h/mL
- tmax [3, 11]: 3 h
- AUC ([3]; male, beagle, dog, plasma, po, 200 mg, Example 20, fed dogs (high fat diet), mean, read-out: AUC0-rt): 50900 ng·h/mL
- Cmax ([3]; male, beagle, dog, plasma, po, 200 mg, Example 20, fed dogs (high fat diet), mean, read-out: Cmax): 5430 ng/mL
- concentration at 0.25 h ([3]; male, beagle, dog, plasma, po, 200 mg/tablet/dog, Example 20, fed dogs, mean, LLOQ 20 ng/mL, read-out: Plasma concentration of Compound I at 0.25 hours): 70.3 ng/mL
- concentration at 0.5 h ([3]; male, beagle, dog, plasma, po, 200 mg/tablet/dog, Example 20, fed dogs, mean, LLOQ 20 ng/mL, read-out: Plasma concentration of Compound I at 0.5 hours): 717 ng/mL
- concentration at 1 h ([3]; male, beagle, dog, plasma, po, 200 mg/tablet/dog, Example 20, fed dogs, mean, LLOQ 20 ng/mL, read-out: Plasma concentration of Compound I at 1 hour): 2190 ng/mL
- concentration at 2 h ([3]; male, beagle, dog, plasma, po, 200 mg/tablet/dog, Example 20, fed dogs, mean, LLOQ 20 ng/mL, read-out: Plasma concentration of Compound I at 2 hours): 4580 ng/mL
- concentration at 4 h ([3]; male, beagle, dog, plasma, po, 200 mg/tablet/dog, Example 20, fed dogs, mean, LLOQ 20 ng/mL, read-out: Plasma concentration of Compound I at 4 hours): 4960 ng/mL
- concentration at 8 h ([3]; male, beagle, dog, plasma, po, 200 mg/tablet/dog, Example 20, fed dogs, mean, LLOQ 20 ng/mL, read-out: Plasma concentration of Compound I at 8 hours): 2460 ng/mL
- concentration at 24 h ([3]; male, beagle, dog, plasma, po, 200 mg/tablet/dog, Example 20, fed dogs, mean, LLOQ 20 ng/mL, read-out: Plasma concentration of Compound I at 24 hours): 847 ng/mL
- concentration at 36 h ([3]; male, beagle, dog, plasma, po, 200 mg/tablet/dog, Example 20, fed dogs, mean, LLOQ 20 ng/mL, read-out: Plasma concentration of Compound I at 36 hours): 79.7 ng/mL
- Compound I concentration maintained ([4]; HPMC 5 μg/mL): 160 µg/mL
- maintenance of Compound I supersaturation ([4]; HPMC 1 or 2 μg/mL): did not substantially maintain Compound I supersaturation
- API concentration after dissolution ([4]; absence of HPMC, in 10 minutes): 80 µg/mL
